According to PubChem BioAssay AID330 (DTP/NCI, 2004):
Inconclusive results and toxic doses are left out.

Tested on: P388 leukemia ip, CD2F1 mice, survival T/C
Experiment: NCI In Vivo Anticancer Drug Screen. Data for tumor model P388 Leukemia (intraperitoneal) in CD2F1 (CDF1) mice
Settings: endpoint: median survival time, higher = longer survival
Outline: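 Mice carrying the transplanted tumor received test compound or vehicle. Survival was recorded in each group, and the value is the treated-group measurement divided by that of the vehicle-treated control group.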

[1] = dose: 50.0 mg/kg/injection, schedule: Q01DX005 (ip), vehicle: saline with Tween-80
[2] = dose: 100.0 mg/kg/injection, schedule: Q01DX005 (ip), vehicle: saline with Tween-80
[3] = dose: 200.0 mg/kg/injection, schedule: Q01DX005 (ip), vehicle: saline with Tween-80

| Structure (SMILES) | T/C [1] | T/C [2] | T/C [3] | further results |
| --- | --- | --- | --- | --- |
| O=C(Cc1nc2ccccc2[nH]1)NNC(=S)Nc1ccc(Cl)cc1 |  |  |  | T/C (dose: 60.0 mg/kg/injection, schedule: Q01DX005 (ip), vehicle: Klucel (hydroxypropylcellulose) (HPC)): 88 % of control; T/C (dose: 120.0 mg/kg/injection, schedule: Q01DX005 (ip), vehicle: Klucel (hydroxypropylcellulose) (HPC)): 86 % of control |
| CCCCCCCSc1ncnc2c1ncn2C(=O)Sc1ccccc1 | 104 % of control | 99 % of control | 107 % of control |  |
| O=C(N=Nc1ccccc1)NC1CCCCC1 | 100 % of control | 101 % of control | 100 % of control |  |
| O=C1C=CC(=O)C2=C1C1CCCC1C1CCCC21 (stereo unspecified) |  |  |  | T/C (dose: 25.0 mg/kg/injection, schedule: Q01DX009 (ip), vehicle: saline): 123 % of control; T/C (dose: 50.0 mg/kg/injection, schedule: Q01DX009 (ip), vehicle: saline): 105 % of control; T/C (dose: 100.0 mg/kg/injection, schedule: Q01DX009 (ip), vehicle: saline): 113 % of control |
